Key:
[1] = system: MDA-MB-231 breast cancer cells; experiment: Radial microfluidic chemotaxis assay, MDA-MB-231 cells (migration distance); assay type: cell-based, human; conditions: for chemotaxis response (migration distance) to the EGF gradient after inhibitor treatment: MDA-MB-231 cells with reduced HMGA2 levels after LIN28 inhibitor, 6 h migration
From the text: (§1) The device pattern was designed using AUTOCAD and printed on a transparent film at high resolution. The SU-8 device master was fabricated on a 3-inch silicon wafer by a two-layer photolithography (10). The first layer defines the cell docking structure that is used to align the cells to one side of the gradient channel prior to migration (FIG. 2). Its thickness should be cell specific, with it being slightly lower than the cell size but not be too low to prevent the cells from crossing, as described herein. We chose ˜2.5 μm for neutrophils and ˜7 μm for breast cancer cells. The Polydimethylsiloxane (PDMS) (Sylgard 184; Dow Corning, Midland, USA) device was fabricated using soft-lithography. Inlets (6 mm diameter), outlets (4 mm diameter), and the cell loading port (2 mm diameter) were punched. The PDMS replica was bonded to a glass slide to seal the channels after plasma treatment. The device channels were coated using rat tail collagen type I (3.8 μg/mL; Advanced BioMatrix, San Diego, USA) for one hour and then blocked by 0.4% BSA in RPMI medium for another hour before the migration experiment.
(§2) Two microliters of cell suspension were added to the cell loading port of each unit. When the cells had collected in the docking area, chemoattractant solution and migration medium were added to the corresponding inlets (FIG. 2). We used 100 nM IL-8 and 100 nM fMLP dissolved in RPMI-1640 with 0.4% BSA neutrophils. For the migration studies with the human breast cancer cells, EGF (10 ng/ml, 50 ng/ml, 100 ng/ml, 200 ng/ml) dissolved in DMEM/ F-12 plus 1% FBS served as chemoattractant.
(§3) To characterize proper gradient generation, FITC-dextran (10 kD; Sigma, Oakville, Canada) was added to the solution containing the chemoattractant and fluorescent images were captured using an inverted fluorescent microscope (Ti-U; Nikon, Mississauga, Canada). Upon adding the chemoattractant solution, the inlets were covered and connected with silicone oil (A12728-22, density=0.963 g/ml; Alfa Aesar, Tewksbury, USA) to balance the pressure difference between the two inlets (FIG. 3A). The microscope stage was enclosed by an environmental control chamber to maintain the temperature at 37° C. during the cell migration experiments. Time-lapse images (10 sec intervals for neutrophils and 3 min intervals for the breast cancer cells) recorded cell migration. The faster migration of neutrophils was recorded for 20 minutes, whereas migration of the breast cancer cells was monitored for 6 hours.
Cell migration and chemotaxis were quantified by calculating the migration distance the cells moved away from the docking site. For MDA-MB-231 experiments, trajectories of representative cells were tracked by manual tracking method using ImageJ. The migration angle ϕ is defined as the angle of the cell displacement vector in relation to the direction of the gradient and was calculated in 12 min intervals. The cosine of ϕ was used to indicate the directionality of cell migration relative to the gradient: 1 indicates cell migration perfectly along the gradient direction; −1 indicates cell migration along the opposite direction of the gradient; a value between 1 and −1 indicates the level of deviation of cell migration from the gradient direction. The cell shape was outlined using ImageJ. Each condition was repeated in at least three independent experiments. For statistical analysis, the two-sample Student's t-test was used to compare different conditions using OriginPro. P<0.05 was considered statistically significant and indicated by an asterisk.

[2] = system: endogenous HMGA2 protein levels in MDA-MB-231 cells; experiment: Western blot analysis of HMGA2 protein in MDA-MB-231 cells; assay type: cell-based, human; conditions: 72 h of treatment; for endogenous HMGA2 protein levels: 10 and 20 μM
From the text: (§4) Interleukin-8 (IL8) (R&D systems, Minneapolis, USA), N-Formylmethionyl-leucyl-phenylalanine (fMLP) (Sigma, Oakville, Canada) and epidermal growth factor (EGF) (Bachem, Torrance, USA) were used as the chemoattractant for neutrophils and breast cancer cells, respectively, in the radial microfluidic chip. Neutrophils were isolated from blood of healthy donors using a negative magnetic isolation kit (STEMCELL, Vancouver, Canada). The human breast cancer cell lines MDA-MB-231 and MCF-7 were obtained from ATCC and cultured in DMEM/F12 plus 5% FBS. MDA-MB-231 cells containing a pcDNA3 human full-size HMGA2 expression construct or an empty vector control, as well as HMGA2-knockout MDA-MB-231 cells transduced with a specific lentiviral CRISPR/Cas9 construct (pLV-U6g-EPCG-HMGA2, HS0000278246; Sigma, Oakville, Canada), were cultured with DMEM/F12 medium plus 5% FBS. We employed a rabbit polyclonal anti-HMGA2 antibody (Cell Signalling Technologies, Whitby, Canada) in Western blot analysis to identify MDA-MB-231 clones with homozygous deletion of HMGA2. The small molecule Lin28 inhibitor 1632 (R&D Systems, Minneapolis, USA) was used at 10 and 20 μM to down-regulate endogenous HMGA2 in MDA-MB-231 cells.
To test this hypothesis and further characterize the role of HMGA2 in chemotaxis of MDA-MB-231, we opted for a pharmacological (LIN28 inhibitor 1632) and CRISPR/Cas9 mediated HMGA2 knockout strategy (FIG. 4B-C). […] Next, we treated MDA-MB-231 with a specific CRISPR/Cas9 lentiviral construct and the homozygous loss of HMGA2 expression in MDA-MB-231 HMGA2 knockout (KO) cells was confirmed by Western blot analysis (FIG. 6C). When exposed to a 100 ng/mL EGF gradient in the radial microfluidic chemotaxis assays, we observed a marked reduction in migration distance in MDA-MB-231 KO clones when compared to parental MDA-MB-231 (FIG. 7C). […] This novel higher throughput device may be a valuable new tool to excel the search for new therapeutic drugs and small molecules that can mitigate chemotaxis in inflammatory and tumor cells. […]

human blood neutrophils = experiment: Radial microfluidic chemotaxis assay, neutrophils (migration distance); assay type: cell-based; conditions: for neutrophil chemotaxis: 100 nM gradient, 20-minute migration experiment
From the text: as §1
Two microliters of cell suspension were added to the cell loading port of each unit. […]
To characterize proper gradient generation, FITC-dextran (10 kD; Sigma, Oakville, Canada) was added to the solution containing the chemoattractant and fluorescent images were captured using an inverted fluorescent microscope (Ti-U; Nikon, Mississauga, Canada). […] Time-lapse images (10 sec intervals for neutrophils and 3 min intervals for the breast cancer cells) recorded cell migration. The faster migration of neutrophils was recorded for 20 minutes, whereas migration of the breast cancer cells was monitored for 6 hours.
(§5) Cell migration and chemotaxis were quantified by calculating the migration distance the cells moved away from the docking site. […] The migration angle ϕ is defined as the angle of the cell displacement vector in relation to the direction of the gradient and was calculated in 12 min intervals. […]

[3] = system: HMGA2 over-expressing and mock MDA-MB-231 stable transfectants; experiment: Radial microfluidic chemotaxis assay, HMGA2 over-expressing and mock MDA-MB-231 stable transfectants; assay type: cell-based, human
From the text: as §4, §2
as §3, with “The microscope stage was enclosed by an environmental control chamber to maintain the temperature at 37° C. during the cell migration experiments.” left out
as §5

Compound: CC(=O)N(C)c1cccc(-c2ccc3nnc(C)n3n2)c1 [LIN28 inhibitor 1632]
- chemotaxis response (migration distance) to the EGF gradient after inhibitor treatment [1]: markedly reduced migratory behavior
- chemotaxis response (migration distance) to the EGF gradient after inhibitor treatment ([1]; listed as 1632): markedly reduced chemotaxis
- chemotaxis response (migration distance) to the EGF gradient after inhibitor treatment ([1]; listed as LIN28 inhibitor): significant reduction in chemotaxis response to the EGF gradient
- presence of HMGA2 protein ([2]; 20 μM): almost completely abolished the presence of HMGA2
- endogenous HMGA2 protein levels [2]: down-regulated endogenous HMGA2 protein levels
- endogenous HMGA2 protein levels ([2]; listed as LIN28 inhibitor): verifiable reduction of endogenous HMGA2 levels

Compound: CSCC[C@H](NC=O)C(=O)N[C@@H](CC(C)C)C(=O)N[C@@H](Cc1ccccc1)C(=O)O [fMLP, N-Formylmethionyl-leucyl-phenylalanine]
- chemotaxis response with the fMLP gradient relative to the IL-8 gradient (human blood neutrophils; 100 nM fMLP gradient vs 100 nM IL-8 gradient, 20 minutes): more than 3 fold
- neutrophil chemotaxis (human blood neutrophils): stimulated neutrophil chemotaxis

Compound: EGF: epidermal growth factor (Bachem), chemoattractant for breast cancer cells (NSDSECPLSHDGYCLHDGVCMYIEALDKYACNCVVGYIGERCQYRDLKWWELR; Epidermal growth factor; UniProt P01133 971-1023, looked up)
- migration of transfectants at lowest EGF gradient vs uniform field or medium ([3]; EGF gradient 10 ng/mL vs uniform EGF field 50 ng/mL or normal medium): significantly stronger migration
- migration distance of transfectants from the docking site, lowest EGF gradient ([3]; EGF gradient 10 ng/mL, compared with the other EGF gradients): migrate the shortest distance
- migration of transfectants in EGF gradients ([3]; EGF gradients 200, 100, 50 and 10 ng/mL, 6 h): enhanced and directional migration with all EGF gradients tested
- migration of transfectants in uniform EGF field ([3]; uniform EGF field 50 ng/mL, 6 h): such migratory behaviour was absent
- migration of MDA-MB-231 cells in EGF gradient ([1]; 200, 100, and 50 ng/ml EGF gradient): optimal and comparable migration
- directional migration of MDA-MB-231 cells in EGF gradient ([1]; EGF 10 ng/ml gradient, compared with higher EGF concentrations): directional migration decreased significantly
- migration of MDA-MB-231 cells in EGF gradient ([1]; EGF gradient 100 ng/mL, 6 h): actively migrated out of the docking structure towards the EGF gradient
- directional migration of MDA-MB-231 cells, low input EGF gradient ([1]; gradient with input EGF concentration 10 ng/mL): significantly increase directional migration
- migration of MDA-MB-231 cells in uniform EGF field ([1]; uniform field of EGF 100 ng/mL, 6 h): remained stationary in the docking structure and failed to show a chemotaxis response

Compound: IL-8: Interleukin-8 (R&D systems), chemoattractant for neutrophils
- neutrophil chemotaxis (human blood neutrophils): stimulated neutrophil chemotaxis
